Source: ChEMBL document CHEMBL1201862, “PubChem BioAssay data set” (2004)
Active and inactive are the calls of the source.

Legend:
Cytochrome P450 2C19 = Cytochrome P450 2C19 (Homo sapiens, UniProt P33261); experiment: Cytochrome panel assay with activity outcomes. Panel member name: p450-cyp2c19 Compounds with AC50 equal or less than 10 uM are considered active; assay type: functional
Cytochrome P450 1A2 = biological target: T1, Cytochrome P450 1A2 (Homo sapiens, UniProt P05177);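 also: PubChem cytochrome P450 panel assay, CYP1A2 panel member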
T1 sequence (P05177 whole entry): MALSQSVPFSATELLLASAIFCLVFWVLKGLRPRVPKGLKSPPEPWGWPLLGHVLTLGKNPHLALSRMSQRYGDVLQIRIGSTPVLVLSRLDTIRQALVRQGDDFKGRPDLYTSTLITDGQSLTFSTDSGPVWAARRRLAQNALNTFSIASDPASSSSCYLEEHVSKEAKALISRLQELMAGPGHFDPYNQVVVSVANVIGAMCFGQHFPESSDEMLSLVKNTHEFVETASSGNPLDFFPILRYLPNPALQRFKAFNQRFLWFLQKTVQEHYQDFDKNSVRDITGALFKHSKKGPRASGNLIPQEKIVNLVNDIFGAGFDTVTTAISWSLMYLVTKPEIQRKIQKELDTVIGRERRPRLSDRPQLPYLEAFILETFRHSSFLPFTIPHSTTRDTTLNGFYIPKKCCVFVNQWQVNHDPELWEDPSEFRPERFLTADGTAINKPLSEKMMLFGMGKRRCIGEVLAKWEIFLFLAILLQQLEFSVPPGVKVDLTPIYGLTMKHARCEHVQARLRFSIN

[1] = alpha-synuclein stem-loop luciferase translation blockers – H4 neuroglioma cells, luminescence, confirmation (AID 1988); assay type: functional, cell-based
[2] = Luminescence Cell-Based Dose Response HTS to Identify Inhibitors of 5'UTR Stem-Loop Driven Prion Protein mRNA Translation in H4 Neuroglioblastoma Cells. [Related pubchem assays: 1827 (Project Summary), 1813 (Primary HTS)]; assay type: functional
[3] = luciferase reporter signal suppression in cells – H4 neuroglioma cells, luminescence, dose response (AID 1990); assay type: functional, cell-based
Cytochrome P450 3A4 = Cytochrome P450 3A4 (Homo sapiens, UniProt P08684);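 also: CYP3A4 tested as one member of a cytochrome P450 panel screen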
Cytochrome P450 2D6 = Cytochrome P450 2D6 (Homo sapiens, UniProt P10635);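 also: CYP2D6 member of a cytochrome P450 panel assay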
Cytochrome P450 2C9 = Cytochrome P450 2C9 (Homo sapiens, UniProt P11712)
Chain of Cytochrome P450 2C9 (P11712 whole entry): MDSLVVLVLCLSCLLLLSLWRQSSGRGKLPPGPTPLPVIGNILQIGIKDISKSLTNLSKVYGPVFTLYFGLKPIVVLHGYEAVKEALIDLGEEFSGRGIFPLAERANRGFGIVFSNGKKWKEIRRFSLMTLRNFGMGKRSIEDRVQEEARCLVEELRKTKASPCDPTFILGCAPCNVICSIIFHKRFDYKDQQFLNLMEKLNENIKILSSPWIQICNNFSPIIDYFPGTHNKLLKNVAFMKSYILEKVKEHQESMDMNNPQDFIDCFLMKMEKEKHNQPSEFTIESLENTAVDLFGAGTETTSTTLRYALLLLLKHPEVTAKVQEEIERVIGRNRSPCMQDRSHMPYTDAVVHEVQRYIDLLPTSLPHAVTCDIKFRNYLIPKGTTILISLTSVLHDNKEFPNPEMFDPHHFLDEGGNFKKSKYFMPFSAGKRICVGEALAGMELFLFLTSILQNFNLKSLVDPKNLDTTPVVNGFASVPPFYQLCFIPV

Chain of Cytochrome P450 2C19 (P33261 whole entry): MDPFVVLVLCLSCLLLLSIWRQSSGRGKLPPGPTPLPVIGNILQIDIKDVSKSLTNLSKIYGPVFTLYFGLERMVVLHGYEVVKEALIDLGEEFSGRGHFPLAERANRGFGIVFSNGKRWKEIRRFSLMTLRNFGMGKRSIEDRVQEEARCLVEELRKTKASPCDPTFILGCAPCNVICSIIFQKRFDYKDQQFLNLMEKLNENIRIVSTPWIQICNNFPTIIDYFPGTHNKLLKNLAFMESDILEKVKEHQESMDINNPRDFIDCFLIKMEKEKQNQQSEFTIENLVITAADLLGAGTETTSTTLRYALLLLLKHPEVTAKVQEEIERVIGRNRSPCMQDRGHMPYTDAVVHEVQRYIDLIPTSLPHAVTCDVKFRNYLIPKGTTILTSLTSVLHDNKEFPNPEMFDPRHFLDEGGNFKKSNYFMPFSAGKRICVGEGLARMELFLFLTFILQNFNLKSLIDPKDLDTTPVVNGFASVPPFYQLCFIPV
Chain of Cytochrome P450 2D6 (P10635 whole entry): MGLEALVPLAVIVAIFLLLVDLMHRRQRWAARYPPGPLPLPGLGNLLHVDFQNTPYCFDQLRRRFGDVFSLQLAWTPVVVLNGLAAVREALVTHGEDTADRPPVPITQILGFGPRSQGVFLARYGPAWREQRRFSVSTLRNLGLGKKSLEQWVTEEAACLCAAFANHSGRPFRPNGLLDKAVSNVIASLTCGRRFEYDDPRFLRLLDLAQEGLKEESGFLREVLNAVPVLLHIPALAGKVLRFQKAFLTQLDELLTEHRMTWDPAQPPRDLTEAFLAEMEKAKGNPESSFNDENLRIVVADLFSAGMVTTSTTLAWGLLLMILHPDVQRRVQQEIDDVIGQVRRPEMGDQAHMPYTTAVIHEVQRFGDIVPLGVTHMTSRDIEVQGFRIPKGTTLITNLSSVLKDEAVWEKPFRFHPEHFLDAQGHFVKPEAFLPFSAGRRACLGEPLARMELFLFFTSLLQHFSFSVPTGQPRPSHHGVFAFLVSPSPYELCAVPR
Chain of Cytochrome P450 3A4 (P08684 whole entry): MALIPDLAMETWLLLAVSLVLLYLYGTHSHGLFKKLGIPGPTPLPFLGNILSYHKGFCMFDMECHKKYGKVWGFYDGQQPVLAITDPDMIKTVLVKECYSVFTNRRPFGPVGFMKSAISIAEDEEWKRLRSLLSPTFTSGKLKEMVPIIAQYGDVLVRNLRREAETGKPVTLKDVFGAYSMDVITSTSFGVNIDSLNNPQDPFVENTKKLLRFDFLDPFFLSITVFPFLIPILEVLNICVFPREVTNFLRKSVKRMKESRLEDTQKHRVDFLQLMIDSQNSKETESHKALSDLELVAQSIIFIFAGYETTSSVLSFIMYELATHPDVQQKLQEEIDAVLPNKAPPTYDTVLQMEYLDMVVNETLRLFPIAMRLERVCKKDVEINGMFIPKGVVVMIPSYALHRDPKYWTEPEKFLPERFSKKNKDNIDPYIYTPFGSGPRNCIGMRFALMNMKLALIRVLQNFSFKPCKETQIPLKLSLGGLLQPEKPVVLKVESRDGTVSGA

In the case of `O=C1N[C@@]2(CN3CCC2CC3)C(=O)N1CN(Cc1ccccc1)c1ccccc1`, the AC50 (Cytochrome P450 2C19; read-out: AC50) is reported as 1.58 µM (inconclusive) and the AC50 (Cytochrome P450 1A2) is reported as 0.398 µM (inconclusive).

With `COC(=O)/C=C/c1ccccc1S(=O)(=O)N(Cc1ccccc1)Cc1ccco1` the EC50 [1] was 5.96 µM (active), the EC50 [2] was 9.84 µM (active) and the EC50 [3] was 8.38 µM (inconclusive).

For `O=C(Nc1ccc(F)cc1Cl)c1ccc2c(=O)n3c(nc2c1)CCCCC3`, the AC50 (Cytochrome P450 2C19; read-out: AC50) was 3.98 µM (inconclusive) and the AC50 (Cytochrome P450 3A4) was 4.47 µM (inconclusive).

In the case of `CN(C)S(=O)(=O)c1ccc(Nc2ccc(O)c3c2C(=O)c2c([N+](=O)[O-])ccc(O)c2C3=O)cc1`, the AC50 (Cytochrome P450 2D6) is reported as 0.794 µM (inconclusive), the AC50 (Cytochrome P450 3A4) is reported as 3.98 µM (inconclusive) and the AC50 (Cytochrome P450 2C9) is reported as 3.16 µM (inconclusive).

For `COc1ccc(C)cc1NC(=O)CN1CCN(S(=O)(=O)c2ccc(F)cc2)CC1`, the AC50 (Cytochrome P450 1A2) was 0.0398 µM (inconclusive).

With `Cc1cnn(-c2ccc3nnc(-c4ccc(Cl)cc4)n3n2)c1` the AC50 (Cytochrome P450 2C19; read-out: AC50) was 1.41 µM (inconclusive), the AC50 (Cytochrome P450 3A4) was 1.12 µM (inconclusive) and the AC50 (Cytochrome P450 2C9) was 6.31 µM (inconclusive).

For `O=C(Nc1ccccc1)N1CCCC2(CCN(C(=O)c3cc(C(F)(F)F)cc(C(F)(F)F)c3)CC2)C1`, the AC50 (Cytochrome P450 1A2) was 31.6 µM (inconclusive).

With `COC(=O)C1=C(C)NC(C)=C(C(=O)OC(C)C)C1c1cccc2nonc12` (stereo not drawn) [ISRADIPINE] the AC50 (Cytochrome P450 1A2) was 31.6 µM (inconclusive).

For `CCCCNC(=O)CN1C(=O)NC2(CCCc3ccccc32)C1=O` (stereo not drawn), the AC50 (Cytochrome P450 2C19; read-out: AC50) was 31.6 µM (inconclusive) and the AC50 (Cytochrome P450 1A2) was 25.1 µM (inconclusive).

With `Cc1c(N2C(=O)CS/C2=N\N=C\c2ccc(Cl)cc2)c(=O)n(-c2ccccc2)n1C` the AC50 (Cytochrome P450 2C19; read-out: AC50) was 39.8 µM (inconclusive), the AC50 (Cytochrome P450 3A4) was 28.2 µM (inconclusive) and the AC50 (Cytochrome P450 2C9) was 31.6 µM (inconclusive).

In the case of `O=[N+]([O-])c1cc([N+](=O)[O-])c(Oc2cccc(Cl)c2Cl)cc1NN1CCCCC1`, the EC50 [1] is reported as 58.3 µM (active), the EC50 [2] is reported as > 120 µM (not active) and the EC50 [3] is reported as 11.8 µM (active).

With `Cc1cccc(NC(S)=NNC(=O)CCn2cc(C)cn2)c1` the AC50 (Cytochrome P450 2C19) was “inconclusive” and the AC50 (Cytochrome P450 1A2) was 25.1 µM (inconclusive).

With `O=C(NCc1ccc(F)cc1)C(c1ccncc1)N(C(=O)c1csnn1)C1CC1` (stereo not drawn) the AC50 (Cytochrome P450 2D6) was 11.2 µM (inconclusive) and the AC50 (Cytochrome P450 2C9) was 8.91 µM (inconclusive).

With `O=C(Nc1ccc(Oc2ncnc3cc(Cl)ccc23)nc1)c1cccs1` the EC50 [1] was > 120 µM (not active), the EC50 [2] was > 120 µM (not active) and the EC50 [3] was > 120 µM (not active).

With `COCC(=O)N1CCC2(CCCN(C(=O)Nc3ccc(OC)cc3)C2)CC1` the AC50 (Cytochrome P450 2C19) was “inconclusive” and the AC50 (Cytochrome P450 3A4) was 39.8 µM (inconclusive).

With `CC(=O)[C@H](C(=N)C#N)C(=O)Nc1ccccc1` the AC50 (Cytochrome P450 2C19) was “inconclusive” and the AC50 (Cytochrome P450 1A2) was 6.31 µM (inconclusive).

For `COCCNC(=O)[C@H](C)[C@@H]1C[C@@]1(C)[C@@H](NC(=O)OCc1ccccc1)c1ccccc1`, the AC50 (Cytochrome P450 2C9) was 31.6 µM (inconclusive).

In the case of `Cc1cc(SC(C)C(=O)NCC(=O)Nc2ccc(F)c(F)c2F)nc2ccccc12` (stereo not drawn), the EC50 [1] is reported as 18 µM (active), the EC50 [2] is reported as 92 µM (active) and the EC50 [3] is reported as > 120 µM (not active).

With `COc1ccccc1CN1CCCC2(CCN(C(C)=O)CC2)C1` the AC50 (Cytochrome P450 1A2) was 25.1 µM (inconclusive).

For `COC(=O)c1nn(C23CC4CC(CC(C4)C2)C3)c2c1C(=O)N(c1ccc(F)cc1)C2=O`, the AC50 (Cytochrome P450 2C19; read-out: AC50) was 39.8 µM (inconclusive) and the AC50 (Cytochrome P450 2C9) was 12.6 µM (inconclusive).

For `O=C(c1cccc(F)c1)N1CCC2(CCN(Cc3ccncc3)CC2)CC1`, the AC50 (Cytochrome P450 2D6) was 12.6 µM (inconclusive), the AC50 (Cytochrome P450 2C19; read-out: AC50) was 25.1 µM (inconclusive) and the AC50 (Cytochrome P450 1A2) was 12.6 µM (inconclusive). For the same compound, the AC50 (Cytochrome P450 3A4) was 15.8 µM (inconclusive).

In the case of `O=c1c(-c2ccccc2)c(O)c2cccc3c2n1CCC3`, the AC50 (Cytochrome P450 1A2) is reported as 11.2 µM (inconclusive).

With `COc1cc(-c2c(C#N)c(N)nc3c2CCCC3)cc(OC)c1OC` the EC50 [1] was 19.7 µM (active), the EC50 [2] was 17.1 µM (active) and the EC50 [3] was 27.4 µM (active).

For `Cc1cnc(CNc2ncncc2-c2ccccc2C(F)(F)F)cn1`, the AC50 (Cytochrome P450 2C19; read-out: AC50) was 39.8 µM (inconclusive) and the AC50 (Cytochrome P450 3A4) was 0.2 µM (inconclusive).

For `CSc1nc(NCc2ccco2)c2sc3nc(C(C)C)c4c(c3c2n1)CC(C)(C)OC4`, the EC50 [1] was > 120 µM (not active), the EC50 [2] was > 120 µM (not active) and the EC50 [3] was 27.5 µM (active).

In the case of `Cc1nnc(-c2cccc(Br)c2)c2cn(-c3ccccc3Cl)nc12`, the AC50 (Cytochrome P450 2D6) is reported as 28.2 µM (inconclusive) and the AC50 (Cytochrome P450 3A4) is reported as 39.8 µM (inconclusive).

In the case of `CN(C)c1ncc2nc(-c3ccccc3)c(=O)n(-c3ccccc3)c2n1`, the AC50 (Cytochrome P450 1A2) is reported as 0.398 µM (inconclusive).

In the case of `CCCC(=O)Nc1nnc(Cc2ccccc2)s1`, the AC50 (Cytochrome P450 3A4) is reported as 15.8 µM (inconclusive) and the AC50 (Cytochrome P450 2C9) is reported as 10 µM (inconclusive).

With `COc1ccc2cc3cc(C(=O)NCc4ccccn4)oc3nc2c1` the AC50 (Cytochrome P450 2D6) was 39.8 µM (inconclusive) and the AC50 (Cytochrome P450 3A4) was 39.8 µM (inconclusive).

For `Cc1ccc(C(=O)NC(=S)Nc2ccc(S(=O)(=O)N3CCN(C)CC3)cc2)cc1`, the AC50 (Cytochrome P450 1A2) was 12.6 µM (inconclusive) and the AC50 (Cytochrome P450 3A4) was 0.891 µM (inconclusive).

In the case of `COCCn1c(=O)cnc2cnc(Oc3ccccc3)nc21`, the AC50 (Cytochrome P450 3A4) is reported as 25.1 µM (inconclusive).

In the case of `C=C(CC1([C@@H](NP(=O)(c2ccccc2)c2ccccc2)[C@H]2C[C@@H]2CCCC)CC1)c1cccc(OC)c1`, the AC50 (Cytochrome P450 2D6) is reported as 39.8 µM (inconclusive), the AC50 (Cytochrome P450 2C19; read-out: AC50) is reported as 15.8 µM (inconclusive) and the AC50 (Cytochrome P450 1A2) is reported as 12.6 µM (inconclusive). For the same compound, the AC50 (Cytochrome P450 2C9) was 39.8 µM (inconclusive).

In the case of `O=c1c2ccc([N+](=O)[O-])c3cccc(c32)c2nc3ccccc3n12`, the EC50 [1] is reported as < 0.1 µM (active), the EC50 [2] is reported as < 0.1 µM (active) and the EC50 [3] is reported as < 0.1 µM (active).

In the case of `Cc1cc(=O)oc(C)c1C(=O)Nc1ccc(Cl)cn1`, the AC50 (Cytochrome P450 2C19; read-out: AC50) is reported as 2.24 µM (inconclusive) and the AC50 (Cytochrome P450 2C9) is reported as 20 µM (inconclusive).

In the case of `CC1CCN(c2ccc(NC(=S)NC(=O)c3ccco3)cc2)CC1`, the AC50 (Cytochrome P450 2C19; read-out: AC50) is reported as 3.98 µM (inconclusive), the AC50 (Cytochrome P450 1A2) is reported as 28.2 µM (inconclusive) and the AC50 (Cytochrome P450 3A4) is reported as 17.8 µM (inconclusive). For the same compound, the AC50 (Cytochrome P450 2C9) was 1.41 µM (inconclusive).

With `Cc1ccc(S(=O)(=O)c2cc(N3CCOCC3)nc(-c3ccccc3)n2)cc1` the AC50 (Cytochrome P450 2C9) was 11.2 µM (inconclusive).

With `N#CC(C#N)=NNc1ccc2cn[nH]c2c1` the AC50 (Cytochrome P450 2C19; read-out: AC50) was 3.16 µM (inconclusive) and the AC50 (Cytochrome P450 3A4) was 1.58 µM (inconclusive).

For `CC(=O)Nc1ccc2c(c1)/C(=C/c1ccc([N+](C)(C)C)cc1)c1ccccc1-2`, the AC50 (Cytochrome P450 1A2) was 1.58 µM (inconclusive) and the AC50 (Cytochrome P450 2C9) was 3.16 µM (inconclusive).

With `O=C(O)c1ccc(Oc2nc3ccccc3s2)cc1` the AC50 (Cytochrome P450 1A2) was 3.16 µM (inconclusive).

With `Cn1c(=O)c2c(-c3cccc(F)c3)c3c(nc2n(C)c1=O)-c1ccccc1C3O` (stereo not drawn) the AC50 (Cytochrome P450 2D6) was 79.4 µM (inconclusive), the AC50 (Cytochrome P450 3A4) was 22.4 µM (inconclusive) and the AC50 (Cytochrome P450 2C9) was 2.82 µM (inconclusive).

With `CC1=CC2=NC(=O)CC(C)(C(=O)N(CC(=O)NC(C)(C)C)Cc3cccs3)N2C=C1` (stereo not drawn) the AC50 (Cytochrome P450 2C9) was 25.1 µM (inconclusive).

In the case of `O=c1c(-c2cccs2)nc2cnc(N3CCOCC3)nc2n1Cc1cccs1`, the AC50 (Cytochrome P450 1A2) is reported as 15.8 µM (inconclusive) and the AC50 (Cytochrome P450 3A4) is reported as 10 µM (inconclusive).

With `COc1ccc(O[C@H]2C=C[C@@H](c3ccccc3)O[C@@H]2CO/N=C(\C)CCN2CCCCc3nc(C)c(C)cc32)cc1` the AC50 (Cytochrome P450 2C9) was 6.31 µM (inconclusive).

With `CC(C)OCCCn1c(=S)[nH]c2ncccc2c1=O` the AC50 (Cytochrome P450 2C9) was 1.78 µM (inconclusive).

With `CCCC1S/C(=N/N=C/c2ccc(OC)cc2)N(Cc2ccc(OC)cc2)C1=O` (stereo not drawn) the AC50 (Cytochrome P450 3A4) was 1 µM (inconclusive).
